From publication PMC6298115, “Design and in vitro realization of carbon-conserving photorespiration” (Proceedings of the National Academy of Sciences of the …, 2018)
One block for each molecule: values may come before it.

Key:
RpPduP [1] = target: T1, RpPduP (Rhodopseudomonas palustris, UniProt Q21A49); assay: NADPH oxidation, absorbance at […] nm; format: biochemical; settings: pH 8.0 Hepes, 37 °C, 5 mM MgCl2
T1 construct: gene RPC_1174; N-terminal 6xHis, pET45a, expressed in E. coli BL21(DE3), Ni-NTA
T1 sequence (Q21A49 entry or part of it): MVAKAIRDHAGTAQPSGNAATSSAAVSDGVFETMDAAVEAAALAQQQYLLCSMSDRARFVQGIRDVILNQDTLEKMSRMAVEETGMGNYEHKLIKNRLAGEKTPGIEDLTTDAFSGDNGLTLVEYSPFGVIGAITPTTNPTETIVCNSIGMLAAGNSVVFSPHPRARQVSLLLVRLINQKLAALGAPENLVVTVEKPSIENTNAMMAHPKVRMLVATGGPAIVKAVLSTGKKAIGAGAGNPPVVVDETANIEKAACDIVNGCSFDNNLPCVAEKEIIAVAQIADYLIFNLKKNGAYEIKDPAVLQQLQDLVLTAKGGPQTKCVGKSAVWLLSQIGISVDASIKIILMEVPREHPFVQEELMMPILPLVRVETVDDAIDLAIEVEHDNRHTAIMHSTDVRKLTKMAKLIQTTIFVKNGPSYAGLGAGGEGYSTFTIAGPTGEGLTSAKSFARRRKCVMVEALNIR

RpPduP [2] = target: T2, RpPduP (Rhodopseudomonas palustris, UniProt Q21A49, P164G/I199R/N203L/I222L/L268I/P269T/V271T/L423H, form not given); assay: NADPH oxidation, absorbance at […] nm; format: biochemical; settings: GCR, pH 8.0 Hepes, 37 °C, 5 mM MgCl2, Table 2 note numbers mutations +2, read-out: Engineered GCR
T2 construct: gene RPC_1174; N-terminal 6xHis, pET45a, expressed in E. coli BL21(DE3), Ni-NTA
T2 sequence (Q21A49 entry or part of it P164G/I199R/N203L/I222L/L268I/P269T/V271T/L423H, form open): as the sequence (Q21A49 entry or part of it) above, with P164G, I199R, N203L, I222L, L268I, P269T, V271T, L423H counted along it

RpPduP [3] = target: T1, RpPduP; assay: NADH oxidation, absorbance at […] nm; format: biochemical; settings: pH 8.0 Hepes, 37 °C, 5 mM MgCl2
RpPduP [4] = target: T2, RpPduP; assay: NADH oxidation, absorbance at […] nm; format: biochemical; settings: GCR; saturating acetyl-CoA; pH 8.0 Hepes, 37 °C, 5 mM MgCl2; Table 2 note numbers mutations +2; read-out: Engineered GCR
purified protein = substrate: CC(=O)O; assay: purified protein; settings: 1 mM CoA, 2.5 mM ATP, 5 mM MgCl2, 1 mM DTT, pH 8.0 Hepes, 37 °C

Km (RpPduP [1]; saturating NADPH): 220 ± 20 µM | Km (RpPduP [2]; saturating NADPH): 220 ± 60 µM
Molecule: CC(=O)SCCNC(=O)CCNC(=O)[C@H](O)C(C)(C)COP(=O)(O)OP(=O)(O)OC[C@H]1O[C@@H](n2cnc3c(N)ncnc32)[C@H](O)[C@@H]1OP(=O)(O)O [acetyl-CoA]

Km (RpPduP [2]; saturating NADPH): 240 ± 20 µM | Km (RpPduP [3]; saturating NADH): 220 ± 120 µM
Molecule: CC(C)(COP(=O)(O)OP(=O)(O)OC[C@H]1O[C@@H](n2cnc3c(N)ncnc32)[C@H](O)[C@@H]1OP(=O)(O)O)[C@@H](O)C(=O)NCCC(=O)NCCSC(=O)CO [glycolyl-CoA]

The next lines start with the molecule.

Molecule: NC(=O)C1=CN([C@@H]2O[C@H](COP(=O)(O)OP(=O)(O)OC[C@H]3O[C@@H](n4cnc5c(N)ncnc54)[C@H](OP(=O)(O)O)[C@@H]3O)[C@@H](O)[C@H]2O)C=CC1 [NADPH]
Km (RpPduP [1]; saturating glycolyl-CoA): 370 ± 90 µM | Km (RpPduP [2]; saturating glycolyl-CoA): 240 ± 60 µM

Molecule: NC(=O)C1=CN([C@@H]2O[C@H](COP(=O)(O)OP(=O)(O)OC[C@H]3O[C@@H](n4cnc5c(N)ncnc54)[C@H](O)[C@@H]3O)[C@@H](O)[C@H]2O)C=CC1 [NADH]
Km (RpPduP [3]; saturating acetyl-CoA): 120 ± 30 µM | Km (RpPduP [4]): 70 ± 10 µM

B1: EcACS (Escherichia coli K-12) (protein)
chain: MSQIHKHTIPANIADRCLINPQQYEAMYQQSINVPDTFWGEQGKILDWIKPYQKVKNTSFAPGNVSIKWYEDGTLNLAANCLDRHLQENGDRTAIIWEGDDASQSKHISYKELHRDVCRFANTLLELGIKKGDVVAIYMPMVPEAAVAMLACARIGAVHSVIFGGFSPEAVAGRIIDSNSRLVITSDEGVRAGRSIPLKKNVDDALKNPNVTSVEHVVVLKRTGGKIDWQEGRDLWWHDLVEQASDQHQAEEMNAEDPLFILYTSGSTGKPKGVLHTTGGYLVYAALTFKYVFDYHPGDIYWCTADVGWVTGHSYLLYGPLACGATTLMFEGVPNWPTPARMAQVVDKHQVNILYTAPTAIRALMAEGDKAIEGTDRSSLRILGSVGEPINPEAWEWYWKKIGNEKCPVVDTWWQTETGGFMITPLPGATELKAGSATRPFFGVQPALVDNEGNPLEGATEGSLVITDSWPGQARTLFGDHERFEQTYFSTFKNMYFSGDGARRDEDGYYWITGRVDDVLNVSGHRLGTAEIESALVAHPKIAEAAVVGIPHNIKGQAIYAYVTLNHGEEPSPELYAEVRNWVRKEIGPLATPDVLHWTDSLPKTRSGKIMRRILRKIAAGDTSNLGDTSTLADPGVVEKLLEEKQAIAMPS
Km (purified protein): 87 ± 4 µM | kcat (purified protein): 13.5 s⁻¹ | kcat/Km (purified protein): 155000 M⁻¹ s⁻¹
